Source: patent US12661352B2, “Combination therapy with CLK/DYRK inhibitors and BCL2 inhibitors to treat leukemia” (Memorial Sloan-Kettering Cancer Center, priority 2023, dated 2026)
pIC50: −log10 of the molar value.

How the values were obtained:
MOLM-13 parental cells = experiment: Drug treatment IC50 / cell viability (CellTiter Glo) and synergy, MOLM-13 parental cells; type: cell-based; details: Homo sapiens
Method: (§1) Cell lines were plated in 96 well plates and exposed to the indicated compounds at various concentration ranges with a minimum of three technical replicates per concentration per cell line. Cell viability was measured with the CellTiter Glo reagent (Promega) as per manufacturer's instructions. Absolute viability values were converted to percentage viability versus DMSO control treatment, and then non-linear fit of log (inhibitor) versus response (three parameters) was performed in GraphPad Prism v7.0 to obtain an IC50 values. Two-dimensional heatmaps of Synergy Scores from Bliss synergy models were generated based on Demidenko et al., 2019^83.

[1] = tested on: venetoclax-resistant MOLM-13 cell lines; experiment: Drug treatment IC50 / cell viability (CellTiter Glo) and synergy, venetoclax-resistant MOLM-13 cell lines; type: cell-based; details: Homo sapiens, cell lines developed by continuous exposure to venetoclax for 3 weeks
Method: as §1
The efficacy of SM09419 across a spectrum of human AML cell lines was tested. […] Three independent venetoclax-resistant MOLM-13 cell lines following continuous exposure to venetoclax for 3 weeks were developed. […] These findings were further extended to patient-derived xenograft (PDX) models of AML from patients with de novo resistance to venetoclax combination regimens (5-azacytidine or low-dose cytarabine) (FIGS. 6C-6D). Following xenotransplantation from two individual venetoclax-resistant patients into NSGS mice, disease engraftment with >10% human hCD45^+ hCD34^+ hCD38^+ cells was detected and mice were exposed to SM09419 (25 mg/kg) or vehicle administered orally and daily for 3 weeks.

What does the source list for `CC1(C)CCC(CN2CCN(c3ccc(C(=O)NS(=O)(=O)c4ccc(NCC5CCOCC5)c([N+](=O)[O-])c4)c(Oc4cnc5[nH]ccc5c4)c3)CC2)=C(c2ccc(Cl)cc2)C1` [venetoclax]?
pIC50 (MOLM-13 parental cells): ~7.82; pIC50 [1]: < 7.00
